Experimental data reported in patent publication US11433090B2, “mTOR-inhibitor-containing medicine for treating or preventing ophthalmic symptoms, disorders, or diseases, and application thereof” (The Doshisha, priority 2017, dated 2022).

Columns and labels:
[1] = system: iFECD; assay: Cell damage induced by TGF-β2 in iFECD, phase contrast microscopy; type: cell-based, human; settings: 3 pmol mTOR siRNA with Lipofectamine, then TGF-β2 10 ng/ml 24 h, FIG. 7
Experimental: (§1) The medium was removed from a culture dish in which iFECDs were being cultured, and the cells were supplemented with 1×PBS (−) that was preheated to 37° C., and were washed. This was repeated twice. The cells were supplemented again with 1×PBS (−) and incubated for 3 minutes at 37° C. (5% CO2). After removing the PBS (−), the cells were supplemented with 0.05% Trypsin-EDTA (Nacalai Tesque, 32778-34) and incubated for 5 minutes at 37° C. (5% CO2). The cells were then suspended in a medium, and collected by centrifugation at 1500 rpm for 3 minutes. DMEM (Nacalai Tesque, 08456-36)+10% FBS (Biowest, S1820-500)+1% P/S (Nacalai Tesque, 26252-94) was used as the medium.
iFECDs were seeded on a 12-well plate at a ratio of 1×10^5 cells per well and cultured for 24 hours at 37° C. (5% CO2) (DMEM+10% FBS+1% P/S was used as the medium). After 24 hours, the medium was removed. Rapamycin was added to culture the cells for 24 hours. (DMEM+2% FBS+1% P/S was used as the medium). After 24 hours, the medium was removed. A medium containing 10 ng/ml of Recombinant Human TGF-β2 (Wako, 200-19911) and rapamycin was added to culture the cells for 24 hours. (DMEM+2% FBS+1% P/S was used as the medium). After 24 hours, the cell morphology and apoptosis were observed under a phase contrast microscope.
iFECDs were seeded on a 12-well plate at a ratio of 3×10^4 cells per well and cultured for 24 hours at 37° C. […]

[2] = system: mTOR; assay: mTOR expression at RNA level in iFECD (PCR, agarose gel electrophoresis); type: cell-based, human; settings: 3 pmol mTOR siRNA, FIG. 6
Experimental: as §1
iFECDs were seeded on a 12-well plate at a ratio of 3×10^4 cells per well and cultured for 24 hours at 37° C. (5% CO2) (medium: DMEM+10% FBS+1% P/S). After 24 hours, the medium was removed. Lipofectamine (invitrogen, 92008) and 3 pmol of mTOR siRNA (Ambion, AS026M0L) were added to culture the cells for 24 hours (medium: OptiMEM-I (invitrogen, 31985-088)). The mTOR siRNA that was used has a sense strand set forth in SEQ ID NO: 1 and an antisense strand set forth in SEQ ID NO: 2. After 24 hours, the medium was removed to culture the cells for 72 hours at 37° C. (5% CO2) (medium: DMEM+10% FBS+1% P/S). After 72 hours, the medium was removed. […]

## mTOR siRNA: siRNA against mTOR gene (Ambion, AS026M0L); sense strand SEQ ID NO: 1, antisense strand SEQ ID NO: 2 (sense CAUUCGCAUUCAGUCCAUATT; antisense UAUGGACUGAAUGCGAAUGAT; chemistry not given here)
[1]
  damage to corneal endothelial cells induced by Recombinant Human TGF-β2: suppressed
[2]
  mTOR expression, RNA level (PCR): suppression was found
